Data as given in US9758492B2, “IDO inhibitors” (Bristol-Myers Squibb Company, priority 2013, dated 2017).
pIC50: −log10 of the molar value.

Experiments:
[1] = biological target: T1, Human IDO1 (Homo sapiens, UniProt P14902); assay: IDO Kynurenine Assay with Human IDO1/HEK293 Cells; format: cell-based; details: read-out: HEK human IDO-1 (IC50)
T1 construct: expressed in transfected cells; host or cells: HEK293
Procedure: IDO Kynurenine Assay with Human IDO1/HEK293 Cells
Human IDO1/HEK293 cells were seeded at 10,000 cells per 50 uL per well with RPMI/phenol red free media contains 10% FBS in a 384-well black wall clear bottom tissue culture plate (Matrix Technologies LLC) 125 nL of certain concentration of compound was then added to each well using ECHO liquid handling systems. The cells were incubated for 20 hours in 37° C. incubator with 5% CO2.
The compound treatments were stopped by adding Trichloroacetic Acid (Sigma-Aldrich) to a final concentration at 0.2%. The cell plate was further incubated at 50° C. for 30 minute. The equal volume supernatant (20 uL) and 0.2% (w/v) Ehrlich reagent (4-dimethylaminobenzaldehyde, Sigma-Aldrich) in glacial acetic acid were mixed in a new clear bottom 384-well plate. This plate was then incubated at room temperature for 30 minute. The absorbance at 490 nm was measured on Envision plate reader.
Compound IC50 values were calculated using the counts of 500 nM of a reference standard treatment as one hundred percent inhibition, and counts of no compound but DMSO treatment as zero percent inhibition.

[2] = biological target: IDO (Homo sapiens, UniProt P14902); assay: LLE_IDO_ABS_DR (IDO assay)
Sequence of IDO (P14902 whole entry): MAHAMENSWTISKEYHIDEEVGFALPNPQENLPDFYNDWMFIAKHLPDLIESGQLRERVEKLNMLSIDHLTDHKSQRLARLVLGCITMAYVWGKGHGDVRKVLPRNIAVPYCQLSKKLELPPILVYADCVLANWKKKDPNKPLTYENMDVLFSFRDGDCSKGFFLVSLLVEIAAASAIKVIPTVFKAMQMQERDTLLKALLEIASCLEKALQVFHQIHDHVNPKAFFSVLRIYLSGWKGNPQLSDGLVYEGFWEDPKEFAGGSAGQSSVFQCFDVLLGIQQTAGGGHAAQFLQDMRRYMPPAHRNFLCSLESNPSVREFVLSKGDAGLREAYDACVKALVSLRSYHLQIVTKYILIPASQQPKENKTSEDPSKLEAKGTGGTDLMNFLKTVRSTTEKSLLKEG

T1 sequence (P14902 whole entry): as above

Structure (SMILES)	pIC50 [1]	pIC50 [2]
Cc1ccc(NC(=O)Nc2cc(-c3ccccc3-c3nnn[nH]3)ccc2N(CC(C)C)C2CCOCC2)cc1 [Example 379]	7.52	7.70
C=CC(c1ccccc1)c1cc(-c2ccccc2-c2nnn[nH]2)cc(NC(=O)Nc2ccccc2F)c1NCC(C)C (stereo not drawn) [Example 357, 1-(2-fluorophenyl)-3-(4-(isobutylamino)-5-(1-phenylallyl)-2′-(1H-tetrazol-5-yl)-[1,1′-biphenyl]-3-yl)urea]	6.49	7.40
Cc1cnc(NC(=O)Nc2cc(-c3ccccc3-c3nnn[nH]3)ccc2N(CC(C)C)CC(C)C)cn1 [Example 308, 1-(4-(diisobutylamino)-2′-(2H-tetrazol-5-yl)-[1,1′-biphenyl]-3-yl)-3-(5-methylpyrazin-2-yl)urea]	6.57	–
CC(C)CN(c1ccc(-c2cc(F)ccc2C(=O)O)cc1NC(=O)Nc1ccc2ncncc2c1)C1CCCCC1 [Example 405]	5.91	–
CC(C)CN(c1cc(F)c(-c2cc(F)ccc2C(=O)O)cc1NC(=O)Nc1ccc2c(c1)OCO2)C1CCC(F)(F)CC1 [Example 531, 5′-(3-(Benzo[d][1,3]dioxol-5-yl)ureido)-4′-((4,4-difluorocyclohexyl)(isobutyl)amino)-2′,5-difluoro-[1,1′-biphenyl]-2-carboxylic acid]	7.70	–
Cc1ncc(NC(=O)Nc2cc(-c3cc(F)ccc3C(=O)O)c(F)cc2N(CC(C)C)C2C[C@H]3CC[C@@H]2C3)cn1 (stereo partly drawn) [Example 413]	5.71	–
COCCN(c1ccc(-c2cc(F)ccc2C(=O)O)cc1NC(=O)Nc1ccc(C)cc1)C1CCCCC1 [Example 447]	7.22	–
CC(C)CN(CC(C)C)c1ccc(-c2cccc(OC(F)(F)F)c2C(=O)O)cc1NC(=O)Nc1ccc(Cl)cc1F [Example 496]	8.00	–
CC(C)CN(CC(C)C)c1ccc(-c2ccc(Cl)cc2C(=O)O)cc1NC(=O)Nc1ccc(C#N)nc1 [Example 359, 4-Chloro-3′-(3-(6-cyanopyridin-3-yl)ureido)-4′-(diisobutylamino)-[1,1′-biphenyl]-2-carboxylic acid]	6.26	–
CC(C)CN(CC(C)C)c1ccc(-c2ccccc2-c2nnn[nH]2)cc1NC(=O)Nc1cncnc1 [Example 391]	6.55	–
CCOc1ccc(NC(=O)Nc2cc(-c3ccccc3-c3nnn[nH]3)ccc2N(C2CC2)C2CC2)cc1 [Example 544]	5.76	–
Cc1cccc(NC(=O)Nc2cc(-c3cc(F)ccc3C(=O)O)c(F)cc2N(CC(C)C)C2CCCCC2)c1 [Example 516, 4′-(Cyclohexyl(isobutyl)amino)-2′,5-difluoro-5′-(3-(m-tolyl)ureido)-[1,1′-biphenyl]-2-carboxylic acid]	7.30	–
Cc1ccc(NC(=O)Nc2cc(-c3cc(F)ccc3C(=O)O)ccc2N(CCOC(C)C)CC(C)C)cc1 [Example 466]	5.76	–
Cc1ccc(NC(=O)Nc2cc(-c3ccccc3C(=O)O)ccc2N(CC(C)C)C2CCC(C(F)(F)F)CC2)cc1 (stereo not drawn) [Example 307, 4′-(isobutyl(4-(trifluoromethyl)cyclohexyl)amino)-3′-(3-(p-tolyl)ureido)-[1,1′-biphenyl]-2-carboxylic acid]	7.40	–
Cc1cc(NC(=O)Nc2cc(-c3cc(F)ccc3C(=O)O)c(F)cc2N(CC(C)C)C2CCC(F)(F)CC2)no1 [Example 518, 4′-((4,4-Difluorocyclohexyl)(isobutyl)amino)-2′,5-difluoro-5′-(3-(5-methylisoxazol-3-yl)ureido)-[1,1′-biphenyl]-2-carboxylic acid]	7.70	–
CC(C)CN(c1cc(F)c(-c2cc(F)ccc2C(=O)O)cc1NC(=O)Nc1ccccc1F)C1CCC(F)(F)CC1 [Example 538, 4′-((4,4-Difluorocyclohexyl)(isobutyl)amino)-2′,5-difluoro-5′-(3-(2-fluorophenyl)ureido)-[1,1′-biphenyl]-2-carboxylic acid]	8.00	–
[2H]C([2H])(C(C)C)N(c1ccc(-c2ccccc2C(=O)O)cc1NC(=O)Nc1ccc(C)cc1)C([2H])([2H])C(C)C [Example 478]	8.00	–
CC(C)CN(c1cc(F)c(-c2cc(F)ccc2C(=O)O)cc1NC(=O)Nc1ccn(C)n1)C1CCCCC1 [Example 515, 4′-(Cyclohexyl(isobutyl)amino)-2′,5-difluoro-5′-(3-(1-methyl-1H-pyrazol-3-yl)ureido)-[1,1′-biphenyl]-2-carboxylic acid]	5.37	–
Cc1ccc(NC(=O)Nc2cc(-c3cc(F)ccc3C(=O)O)ccc2N(CC(C)C)C2CCC(C(F)(F)F)CC2)cc1 (stereo not drawn) [Example 306, 5-fluoro-4′-(isobutyl(4-(trifluoromethyl)cyclohexyl)amino)-3′-(3-(p-tolyl)ureido)-[1,1′-biphenyl]-2-carboxylic acid]	7.40	–
CC(C)CN(CC(C)C)c1ccc(-c2ccccc2-c2nnn[nH]2)cc1NC(=O)Nc1ccc(CC#N)cc1 [Example 457]	6.43	–
CC(C)CN(c1ccc(-c2cc(F)ccc2C(=O)O)cc1NC(=O)Nc1ccc2nn(C)cc2c1)C1CCCCC1 [Example 409]	6.96	–
Cc1ccc(C(=O)O)c(-c2ccc(N(CC(C)C)CC(C)C)c(NC(=O)Nc3ccccc3F)c2)c1 [Example 526, 4′-(Diisobutylamino)-3′-(3-(2-fluorophenyl)ureido)-5-methyl-[1,1′-biphenyl]-2-carboxylic acid]	6.62	–
CCC(CC)N(CC(C)C)c1ccc(-c2cc(F)ccc2C(=O)O)cc1NC(=O)Nc1ccc(C)cc1 [Example 439]	8.00	–
CC(C)CN(CC(C)C)c1ccc(-c2ccccc2-c2nnn[nH]2)cc1NC(=O)Nc1ccc(N(C)C)cc1 [Example 463]	7.70	–

Further molecules by rising pIC50 [1], results first:

pIC50 [1]	pIC50 [2]	Structure (SMILES)
8.00	8.65	O=C(Nc1ccc(OC(F)(F)F)cc1)Nc1cc(-c2ccccc2-c2nnn[nH]2)ccc1N(CCC(F)(F)F)Cc1ccc(OC(F)(F)F)cc1 [Example 503, 1-(2′-(1H-Tetrazol-5-yl)-4-((4-(trifluoromethoxy)benzyl)(3,3,3-trifluoropropyl)amino)-[1,1′-biphenyl]-3-yl)-3-(4-(trifluoromethoxy)phenyl)urea]
8.00	8.00	O=C(Nc1ccc(C2CC2)cc1)Nc1cc(-c2ccccc2-c2nn[nH]n2)ccc1N1CC2CC1CN2Cc1ccccc1 (stereo not drawn) [Example 348, 1-(4-(5-benzyl-2,5-diazabicyclo[2.2.1]heptan-2-yl)-2′-(2H-tetrazol-5-yl)-[1,1′-biphenyl]-3-yl)-3-(4-cyclopropylphenyl)urea]
8.00	–	Cc1ccc(NC(=O)Nc2cc(-c3ccccc3-c3nnn[nH]3)ccc2N(CCCC(F)(F)F)C2CCCCC2)cc1 [Example 467]
8.00	–	CC(C)CN(CC(C)C)c1ccc(-c2ccccc2-c2nnn[nH]2)cc1NC(=O)Nc1ccc(OC(F)F)cc1 [Example 453]
8.05	–	Cc1ccc(NC(=O)Nc2cc(-c3cc(F)ccc3C(=O)O)c(F)cc2N(CC(C)C)CC(C)C)cc1 [Example 426]
8.07	–	Cc1cc(NC(=O)Nc2cc(-c3cc(F)ccc3C(=O)O)c(F)cc2N(CC(C)C)C2CCC(F)(F)CC2)on1 [Example 521, 4′-((4,4-Difluorocyclohexyl)(isobutyl)amino)-2′,5-difluoro-5′-(3-(3-methylisoxazol-5-yl)ureido)-[1,1′-biphenyl]-2-carboxylic acid]
8.22	–	CC(C)CN(c1cc(F)c(-c2ccccc2-c2nnn[nH]2)cc1NC(=O)Nc1ccccc1F)C1CCC(F)(F)CC1 [Example 537, 1-(4-((4,4-Difluorocyclohexyl)(isobutyl)amino)-6-fluoro-2′-(1H-tetrazol-5-yl)-[1,1′-biphenyl]-3-yl)-3-(2-fluorophenyl)urea]
8.37	–	C=C(C)CN(c1ccc(-c2cc(F)ccc2C(=O)O)cc1NC(=O)Nc1ccc(C)cc1)C1CCCCC1 [Example 461]
8.46	–	CC(C)CN(c1ccc(-c2cc(F)ccc2C(=O)O)cc1NC(=O)Nc1ccc(C#N)nc1)C1CCCCC1 [Example 488]
8.49	–	CCC(CC)N(CC(C)C)c1ccc(-c2ccccc2-c2nnn[nH]2)cc1NC(=O)Nc1ccc(C)cc1 [Example 444]
8.62	–	C=C(C)CN(c1ccc(-c2ccccc2C(=O)O)cc1NC(=O)Nc1ccc(C)cc1)C1CCCCC1 [Example 460]
8.63	–	CCOc1ccc(NC(=O)Nc2cc(-c3ccccc3-c3nnn[nH]3)ccc2N(CC(C)C)CC(C)C)cc1 [Example 454]
8.63	–	CC(C)CN(c1cc(F)c(-c2cc(F)ccc2C(=O)O)cc1NC(=O)Nc1ccc2nccnc2c1)C1CCCCC1 [Example 403]
8.68	–	CC(C)CN(c1cc(F)c(-c2cc(F)ccc2C(=O)O)cc1NC(=O)Nc1cc(C(F)(F)F)no1)C1CCCCC1 [Example 393]
8.74	–	CC(C)CN(CC(C)C)c1cc(F)c(-c2cc(F)ccc2C(=O)O)cc1NC(=O)Nc1ccc(Cl)cc1F [Example 428]
8.74	–	CC(C)CN(c1c(F)cc(-c2ccccc2C(=O)O)cc1NC(=O)Nc1ccccc1F)C1CCCCC1 [Example 432]
8.78	–	CC(C)CN(c1c(F)cc(-c2ccccc2C(=O)O)cc1NC(=O)Nc1ccc(Cl)cc1F)C1CCCCC1 [Example 438]
8.81	–	CCC(CC)N(CC(C)C)c1ccc(-c2ccccc2C(=O)O)cc1NC(=O)Nc1ccc(Cl)cc1F [Example 440]
8.85	–	CCC(CC)N(CC(C)C)c1ccc(-c2ccccc2-c2nnn[nH]2)cc1NC(=O)Nc1ccccc1F [Example 449]
8.94	–	CC(C)CN(c1c(F)cc(-c2ccccc2-c2nnn[nH]2)cc1NC(=O)Nc1ccc(Cl)cc1F)C1CCCCC1 [Example 436]
